Assay results: the supplement of paper PMC10627819

Legend:
B. subtilis 168 = test: fitness (endpoint OD595 vs no drug) (fraction); higher = more growth
Summary of the method: (§1)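 Cultures at OD595 0.01 were dispensed into 384-well plates in TSB, LB Lennox or CY and incubated at 37 °C. Every 30 min for 14 h, OD595 was read and corrected by the first reading. Fitness is the optical density at entry into stationary phase relative to the robust mean of no-drug control wells, capped at 1.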

S. pneumoniae D39V = test: as above
Summary of the method: as §1

CN(C)[C@@H]1C(O)=C(C(N)=O)C(=O)[C@@]2(O)C(O)=C3C(=O)c4c(O)ccc(Cl)c4[C@@](C)(O)[C@H]3C[C@@H]12 [Chlortetracycline] + CCC(C)C1C(=O)NC(=C)C(=O)NC(C(=O)NC(CSCC(C(=O)N1)NC(=O)/C(=C/C)/NC(=O)C(C(C)CC)N)C(=O)NC2C(SCC(NC(=O)CNC(=O)C3CCCN3C2=O)C(=O)NC(CCCCN)C(=O)NC4C(SCC(NC(=O)CNC(=O)C(NC(=O)C(NC(=O)C(NC(=O)CNC4=O)C)CC(C)C)CCSC)C(=O)NC(CC(=O)N)C(=O)NC(CCSC)C(=O)NC(CCCCN)C(=O)NC5C(SCC6C(=O)NC(C(=O)NC(CSC(C(C(=O)N6)NC(=O)C(NC5=O)C)C)C(=O)NC(CO)C(=O)NC(C(C)CC)C(=O)NC(CC7=CN=CN7)C(=O)NC(C(C)C)C(=O)NC(=C)C(=O)NC(CCCCN)C(=O)O)CC8=CN=CN8)C)C)C)CC(C)C [Nisin]
main component drawn
Conditions | fitness
B. subtilis 168, first compound 0.0475 µg/mL, partner 0.5 µg/mL | 0.902
B. subtilis 168, first compound 0.0475 µg/mL, partner 1 µg/mL | 0.849
B. subtilis 168, first compound 0.0475 µg/mL, partner 2 µg/mL | 0.452
B. subtilis 168, first compound 0.095 µg/mL, partner 0.5 µg/mL | 0.794
B. subtilis 168, first compound 0.095 µg/mL, partner 1 µg/mL | 0.733
B. subtilis 168, first compound 0.095 µg/mL, partner 2 µg/mL | 0.387
B. subtilis 168, first compound 0.19 µg/mL, partner 0.5 µg/mL | 0.605
B. subtilis 168, first compound 0.19 µg/mL, partner 1 µg/mL | 0.454
B. subtilis 168, first compound 0.19 µg/mL, partner 2 µg/mL | 0.116
S. pneumoniae D39V, first compound 0.012 µg/mL, partner 0.4275 µg/mL | 0.973
S. pneumoniae D39V, first compound 0.012 µg/mL, partner 0.855 µg/mL | 0.804
S. pneumoniae D39V, first compound 0.012 µg/mL, partner 1.71 µg/mL | 0.0763
S. pneumoniae D39V, first compound 0.024 µg/mL, partner 0.4275 µg/mL | 0.909
S. pneumoniae D39V, first compound 0.024 µg/mL, partner 0.855 µg/mL | 0.526
S. pneumoniae D39V, first compound 0.024 µg/mL, partner 1.71 µg/mL | 0.0832
S. pneumoniae D39V, first compound 0.048 µg/mL, partner 0.4275 µg/mL | 0.766
S. pneumoniae D39V, first compound 0.048 µg/mL, partner 1.71 µg/mL | 0.0976
S. pneumoniae D39V, first compound 0.375 µg/mL, partner 1.6 µg/mL | 0.014
S. pneumoniae D39V, first compound 0.375 µg/mL, partner 3.2 µg/mL | 0.0066
S. pneumoniae D39V, first compound 0.375 µg/mL, partner 6.4 µg/mL | 0.0151
S. pneumoniae D39V, first compound 0.75 µg/mL, partner 1.6 µg/mL | 0.0251
S. pneumoniae D39V, first compound 0.75 µg/mL, partner 3.2 µg/mL | 0.0392
S. pneumoniae D39V, first compound 0.75 µg/mL, partner 6.4 µg/mL | 0.0332
S. pneumoniae D39V, first compound 1.5 µg/mL, partner 1.6 µg/mL | 0.0279
S. pneumoniae D39V, first compound 1.5 µg/mL, partner 3.2 µg/mL | 0.0271
S. pneumoniae D39V, first compound 1.5 µg/mL, partner 6.4 µg/mL | 0.064

fitness, B. subtilis 168, one replicate, main component drawn
Conditions | partner 1.25 µg/mL | partner 1.6 µg/mL | partner 2.5 µg/mL | partner 3.2 µg/mL | partner 4 µg/mL | partner 5 µg/mL | partner 6.4 µg/mL | partner 8 µg/mL | partner 16 µg/mL
first compound 0.0475 µg/mL | 0.902 | 0.609 | 0.642 | 0.0268 | 0.0247 | 0.0756 | 0.0534 | 0.006 | 0
first compound 0.095 µg/mL | 0.805 | 0.49 | 0.607 | 0.0306 | 0.0278 | 0.0684 | 0.0417 | 0.0191 | 0.0123
first compound 0.19 µg/mL | 0.686 | 0.0405 | 0.338 | 0.0435 | 0.0329 | 0.0442 | 0.0404 | 0.0227 | 0.0213

CN(C)[C@@H]1C(O)=C(C(N)=O)C(=O)[C@@]2(O)C(O)=C3C(=O)c4c(O)ccc(Cl)c4[C@@](C)(O)[C@H]3C[C@@H]12 [Chlortetracycline] + CN(C)C(=O)C(CCN1CCC(O)(c2ccc(Cl)cc2)CC1)(c1ccccc1)c1ccccc1 [Loperamide]
Conditions | fitness
B. subtilis 168, first compound 0.0475 µg/mL, partner 50 µg/mL | 0.0353
B. subtilis 168, first compound 0.0475 µg/mL, partner 100 µg/mL | 0.0088
B. subtilis 168, first compound 0.095 µg/mL, partner 25 µg/mL | 0.0158
B. subtilis 168, first compound 0.095 µg/mL, partner 50 µg/mL | 0.0367
B. subtilis 168, first compound 0.095 µg/mL, partner 100 µg/mL | 0.0243
B. subtilis 168, first compound 0.19 µg/mL, partner 25 µg/mL | 0.0386
B. subtilis 168, first compound 0.19 µg/mL, partner 50 µg/mL | 0.05
B. subtilis 168, first compound 0.19 µg/mL, partner 100 µg/mL | 0.0328
S. pneumoniae D39V, first compound 0.012 µg/mL, partner 17.14 µg/mL | 0.967
S. pneumoniae D39V, first compound 0.012 µg/mL, partner 34.28 µg/mL | 0.899
S. pneumoniae D39V, first compound 0.024 µg/mL, partner 17.14 µg/mL | 0.926
S. pneumoniae D39V, first compound 0.024 µg/mL, partner 34.28 µg/mL | 0.909
S. pneumoniae D39V, first compound 0.048 µg/mL, partner 17.14 µg/mL | 0.829
S. pneumoniae D39V, first compound 0.048 µg/mL, partner 34.28 µg/mL | 0.844
S. pneumoniae D39V, first compound 0.375 µg/mL, partner 20 µg/mL | 0.0446
S. pneumoniae D39V, first compound 0.375 µg/mL, partner 40 µg/mL | 0.0664
S. pneumoniae D39V, first compound 0.375 µg/mL, partner 80 µg/mL | 0.065
S. pneumoniae D39V, first compound 0.75 µg/mL, partner 20 µg/mL | 0.0563
S. pneumoniae D39V, first compound 0.75 µg/mL, partner 40 µg/mL | 0.0762
S. pneumoniae D39V, first compound 0.75 µg/mL, partner 80 µg/mL | 0.0821
S. pneumoniae D39V, first compound 1.5 µg/mL, partner 20 µg/mL | 0.04
S. pneumoniae D39V, first compound 1.5 µg/mL, partner 40 µg/mL | 0.0491
S. pneumoniae D39V, first compound 1.5 µg/mL, partner 80 µg/mL | 0.0392

S. pneumoniae D39V, partner 68.57 µg/mL, one replicate
Conditions | fitness
first compound 0.012 µg/mL | 0.908
first compound 0.024 µg/mL | 0.92
first compound 0.048 µg/mL | 0.8

CN(C)[C@@H]1C(O)=C(C(N)=O)C(=O)[C@@]2(O)C(O)=C3C(=O)c4c(O)ccc(Cl)c4[C@@](C)(O)[C@H]3C[C@@H]12 [Chlortetracycline] + CN(C)c1cc(NC(=O)CNC(C)(C)C)c(O)c2c1C[C@H]1C[C@H]3[C@H](N(C)C)C(O)=C(C(N)=O)C(=O)[C@@]3(O)C(O)=C1C2=O [Tigecycline]
Conditions | fitness
B. subtilis 168, first compound 0.0475 µg/mL, partner 0.039 µg/mL | 0.924
B. subtilis 168, first compound 0.0475 µg/mL, partner 0.078 µg/mL | 0.873
B. subtilis 168, first compound 0.0475 µg/mL, partner 0.156 µg/mL | 0.823
B. subtilis 168, first compound 0.095 µg/mL, partner 0.039 µg/mL | 0.828
B. subtilis 168, first compound 0.095 µg/mL, partner 0.078 µg/mL | 0.781
B. subtilis 168, first compound 0.095 µg/mL, partner 0.156 µg/mL | 0.784
B. subtilis 168, first compound 0.19 µg/mL, partner 0.039 µg/mL | 0.651
B. subtilis 168, first compound 0.19 µg/mL, partner 0.078 µg/mL | 0.605
B. subtilis 168, first compound 0.19 µg/mL, partner 0.156 µg/mL | 0.5
S. pneumoniae D39V, first compound 0.012 µg/mL, partner 0.65 µg/mL | 0.943
S. pneumoniae D39V, first compound 0.012 µg/mL, partner 1.3 µg/mL | 0.98
S. pneumoniae D39V, first compound 0.012 µg/mL, partner 2.6 µg/mL | 0.866
S. pneumoniae D39V, first compound 0.024 µg/mL, partner 0.65 µg/mL | 0.949
S. pneumoniae D39V, first compound 0.024 µg/mL, partner 1.3 µg/mL | 0.909
S. pneumoniae D39V, first compound 0.024 µg/mL, partner 2.6 µg/mL | 0.862
S. pneumoniae D39V, first compound 0.048 µg/mL, partner 0.65 µg/mL | 0.867
S. pneumoniae D39V, first compound 0.048 µg/mL, partner 1.3 µg/mL | 0.814
S. pneumoniae D39V, first compound 0.048 µg/mL, partner 2.6 µg/mL | 0.815
S. pneumoniae D39V, first compound 0.375 µg/mL, partner 0.325 µg/mL | 0.0315
S. pneumoniae D39V, first compound 0.375 µg/mL, partner 0.65 µg/mL | 0.0403
S. pneumoniae D39V, first compound 0.375 µg/mL, partner 1.3 µg/mL | 0.0368
S. pneumoniae D39V, first compound 0.75 µg/mL, partner 0.325 µg/mL | 0.0625
S. pneumoniae D39V, first compound 0.75 µg/mL, partner 0.65 µg/mL | 0.0555
S. pneumoniae D39V, first compound 0.75 µg/mL, partner 1.3 µg/mL | 0.0691
S. pneumoniae D39V, first compound 1.5 µg/mL, partner 0.325 µg/mL | 0.0404
S. pneumoniae D39V, first compound 1.5 µg/mL, partner 0.65 µg/mL | 0.0304
S. pneumoniae D39V, first compound 1.5 µg/mL, partner 1.3 µg/mL | 0.0788

fitness, B. subtilis 168, one replicate
Conditions | first compound 0.0475 µg/mL | first compound 0.095 µg/mL | first compound 0.19 µg/mL
partner 0.125 µg/mL | 0.996 | 0.974 | 0.827
partner 0.25 µg/mL | 0.915 | 0.874 | 0.763
partner 0.5 µg/mL | 0.933 | 0.879 | 0.84

CN(C)[C@@H]1C(O)=C(C(N)=O)C(=O)[C@@]2(O)C(O)=C3C(=O)c4c(O)ccc(Cl)c4[C@@](C)(O)[C@H]3C[C@@H]12 [Chlortetracycline] + CN[C@@H]1[C@H](O[C@H]2[C@H](O[C@H]3[C@H](O)[C@@H](O)[C@H](N=C(N)N)[C@@H](O)[C@@H]3N=C(N)N)O[C@@H](C)[C@]2(O)C=O)O[C@@H](CO)[C@H](O)[C@H]1O [Streptomycin]
fitness
Conditions | partner 2 µg/mL | partner 4 µg/mL | partner 8 µg/mL
B. subtilis 168, first compound 0.0475 µg/mL | 0.863 | 0.729 | –
B. subtilis 168, first compound 0.095 µg/mL | 0.735 | 0.601 | –
B. subtilis 168, first compound 0.19 µg/mL | 0.473 | 0.367 | 0.0988
S. pneumoniae D39V, first compound 0.012 µg/mL | – | 0.898 | 0.829
S. pneumoniae D39V, first compound 0.024 µg/mL | – | 0.827 | 0.794
S. pneumoniae D39V, first compound 0.048 µg/mL | – | 0.762 | 0.779
S. pneumoniae D39V, first compound 0.375 µg/mL | 0.0439 | 0.0457 | 0.0281
S. pneumoniae D39V, first compound 0.75 µg/mL | 0.0196 | 0.0558 | 0.0751
S. pneumoniae D39V, first compound 1.5 µg/mL | 0.0385 | 0.0525 | 0.0578

fitness, S. pneumoniae D39V, one replicate
Conditions | first compound 0.012 µg/mL | first compound 0.024 µg/mL | first compound 0.048 µg/mL
partner 2 µg/mL | 0.886 | 0.861 | 0.794
partner 16 µg/mL | 0.757 | 0.72 | 0.619
